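Cells were grown in 96-well plates and exposed to each compound for 48 hours at five concentrations; endpoints were interpolated linearly between bracketing concentrations, or set to the highest concentration if not reached. GI50 = concentration required for 50% inhibition of growth.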 Active and inactive are the calls of the source. No stated cut-off is given here; in the data, active = GI50 up to about 1.1 µM and inactive = higher.

Consider 10 compounds from ChEMBL document CHEMBL1201862, “PubChem BioAssay data set” (2004).

Common to all, as to assay: DTP human tumour cell line panel, 48 h
Assay [1] concerns OVCAR-8.
The subject of assay [2] is SNB-19.
Assay [3] concerns U-251.
Assay [4] relates to 786-0.
Assay [5] relates to ACHN.
For assay [6], the system named is HL-60.
The test system of assay [7] is EKVX.
The test system of assay [8] is MDA-MB-435.
Assay [9] concerns A549.
Assay [10] relates to MDA-MB-231.
The test system of assay [11] is HCC 2998.
Assay [12] deals with SK-MEL-28.
The subject of assay [13] is NCI-H23.
In assay [14] the test system is Malme-3M.
For assay [15], the system named is OVCAR-3.
For assay [16], the system named is NCI/ADR-RES.
Assay [17] concerns LOX IMVI.
Assay [18] deals with OVCAR-5.
In assay [19] the test system is SK-MEL-2.
Assay [20] has as its system UACC-62.

With `COc1ccc2nc3c([N+](=O)[O-])ccc4c3c(c2c1)N=CN4CCN(C)C`, the GI50 was 2.82 µM (inactive) in [1]; 6.85 µM (inactive) in [2]; 5.07 µM (inactive) in [3]; 3.61 µM (inactive) in assay [4]; 3.66 µM (inactive) in assay [5]; 0.266 µM (active) in assay [6]. Moreover, the GI50 was 4.65 µM (inactive) in [7]; 6.67 µM (inactive) in [8]; 3.44 µM (inactive) in assay [9]; 1.84 µM (inactive) in [10]; 3.83 µM (inactive) in assay [11]; 7.01 µM (inactive) in [12]. Further, the GI50 in assay [13] is 7.55 µM (inactive); in assay [14], 3.92 µM (inactive); in assay [15] it was 4.55 µM (inactive); in [16], 3.18 µM (inactive); in assay [17], 3.38 µM (inactive); in assay [18] it was 6.7 µM (inactive). Besides, the GI50 in assay [19] was 9.23 µM (inactive); in assay [20], 8.71 µM (inactive).
For the compound `CN1CC2=C(OC(N)=C(C#N)C2c2cccs2)/C(=C/c2cccs2)C1` (stereo not given), the GI50 in assay [1] is 6.44 µM (inactive); in [2], > 59.3 µM (inactive); in [3] it was 8.59 µM (inactive); in assay [4], 31.3 µM (inactive); in assay [5], 2.43 µM (inactive); in [6], 1.81 µM (inactive). The GI50 in assay [7] is 6.01 µM (inactive); in assay [8] it was 6.1 µM (inactive); in [9], 8.3 µM (inactive); in assay [10] it was > 49 µM (inactive); in [11], 25.6 µM (inactive); in [12], > 57.9 µM (inactive). For the same compound, the GI50 in [13] is 7.18 µM (inactive); in assay [14], 8.65 µM (inactive); in assay [15], 15.8 µM (inactive); in [16], 3.41 µM (inactive); in assay [17], 13.9 µM (inactive); in assay [18], > 84.9 µM (inactive). The GI50 in assay [19] is > 35.1 µM (inactive); in assay [20] it was 19.7 µM (inactive).
On to `CC1=Nc2ccccc2/C1=C\c1c(C)[nH]c2ccccc12`, for which the GI50 in assay [1] is 12.4 µM (inactive); in [2], 16.6 µM (inactive); in assay [3] it was 15.9 µM (inactive); in assay [4] it was 12 µM (inactive); in assay [5] it was 15.7 µM (inactive); in assay [6] it was 5.85 µM (inactive). The GI50 was 12.2 µM (inactive) in [7]; 6.59 µM (inactive) in assay [8]; 23.1 µM (inactive) in [9]; 13.4 µM (inactive) in assay [10]; 15.5 µM (inactive) in [11]; 16.6 µM (inactive) in [12]. Moreover, the GI50 in assay [13] was 13 µM (inactive); in [14], 14.1 µM (inactive); in assay [15] it was 12.6 µM (inactive); in [16] it was 16.2 µM (inactive); in assay [17], 13.1 µM (inactive); in assay [18], 23.4 µM (inactive). The GI50 in assay [19] is 17.8 µM (inactive); in assay [20], 5.26 µM (inactive).
Turning to `c1ccc2cc(CN3CCC(C4CCN(Cc5ccc6ccccc6c5)CC4)CC3)ccc2c1`, the GI50 was 3.92 µM (inactive) in assay [1]; 11.5 µM (inactive) in [2]; 2.33 µM (inactive) in assay [3]; 2.45 µM (inactive) in [4]; 4.99 µM (inactive) in assay [5]; 1.53 µM (inactive) in [6]. In addition, the GI50 is 8.24 µM (inactive) in assay [7]; 1.75 µM (inactive) in [8]; 4.2 µM (inactive) in [9]; 4.82 µM (inactive) in [10]; 1.1 µM (active) in assay [11]; 1.87 µM (inactive) in assay [12]. Moreover, the GI50 in [13] was 11.4 µM (inactive); in assay [14] it was 1.19 µM (inactive); in assay [15], 4.59 µM (inactive); in assay [16], 6.79 µM (inactive); in assay [17], 2.22 µM (inactive); in assay [18], 10.1 µM (inactive). In addition, the GI50 was 2.18 µM (inactive) in assay [19] and 2.03 µM (inactive) in [20].
For `C/C(=C\c1ccc(Cl)c(Cl)c1)[N+](=O)[O-]`, the GI50 in assay [1] was 1.13 µM (inactive); in assay [2], 2.39 µM (inactive); in [3] it was 1.71 µM (inactive); in assay [4] it was 0.579 µM (active); in assay [5], 1.98 µM (inactive); in [6], 1.52 µM (inactive). Besides, the GI50 is 2.08 µM (inactive) in assay [7]; 2.23 µM (inactive) in [8]; 1.89 µM (inactive) in [9]; 2.1 µM (inactive) in assay [10]; 4.36 µM (inactive) in [11]; 2.31 µM (inactive) in assay [12]. For the same compound, the GI50 was 2.26 µM (inactive) in [13]; 2.08 µM (inactive) in assay [14]; 1.65 µM (inactive) in assay [15]; 3.41 µM (inactive) in assay [16]; 0.314 µM (active) in assay [17]; 1.96 µM (inactive) in assay [18]. For the same compound, the GI50 was 1.99 µM (inactive) in [19] and 2.38 µM (inactive) in [20].
With `CCCCCCCCCCCCCCCCNc1nc(=O)n(C2OC(C)C(O)C2O)cc1F` (stereo not given), the GI50 is 21.8 µM (inactive) in assay [1]; 18.8 µM (inactive) in assay [2]; 23.7 µM (inactive) in assay [3]; 19.9 µM (inactive) in assay [4]; 15.5 µM (inactive) in assay [5]; 14.5 µM (inactive) in assay [6]. Also, the GI50 in assay [7] is 18.4 µM (inactive); in assay [8] it was 15.5 µM (inactive); in [9], 23.1 µM (inactive); in assay [10], 20.7 µM (inactive); in assay [11], 16.9 µM (inactive); in assay [12], 19.2 µM (inactive). For the same compound, the GI50 in assay [13] was 18 µM (inactive); in assay [14] it was 23.1 µM (inactive); in assay [15], 17.5 µM (inactive); in assay [16], 18.9 µM (inactive); in assay [17], 24.3 µM (inactive); in [18], 20.6 µM (inactive). Further, the values for the GI50 in assay [19] and in assay [20] were 18.9 µM (inactive) and 15.6 µM (inactive), respectively.
`Cc1cc(S(=O)(=O)Nc2n[nH]c(Nc3ccccc3)n2)c(S)cc1Cl`: the GI50 in assay [1], in assay [2], in assay [3], in assay [4], in [5] and in [6] was > 10 µM (inactive) each time. In addition, the GI50 in assay [7], in [8], in assay [9], in assay [10], in assay [11] and in assay [12] was > 10 µM (inactive) each time. In addition, the GI50 in assay [13], in assay [14], in [15], in assay [16], in assay [17] and in assay [18] was > 10 µM (inactive) throughout. For the same compound, the GI50 in assay [19] and in assay [20] was > 10 µM (inactive) each time.
For `COc1cccc(OC)c1NC(=O)C(=O)Nn1c(NNC(=O)c2ccncc2)nc2ccccc2c1=O`, the GI50 in [1], in [2], in [3], in [4], in assay [5] and in assay [6] was > 100 µM (inactive) each time. The GI50 was 84.9 µM (inactive) in [7]; > 100 µM (inactive) in assay [8]; > 100 µM (inactive) in assay [9]; > 100 µM (inactive) in assay [10]; > 100 µM (inactive) in [11]; > 100 µM (inactive) in assay [12]. Besides, the GI50 in assay [13], in [14], in [15], in [16], in assay [17] and in assay [18] was > 100 µM (inactive) each time. Also, the GI50 in assay [19] and in [20] was > 100 µM (inactive) throughout.
As to `CC(=O)NCCC1CN(C(=O)/C=C/I)c2ccccc21` (stereo not given), the GI50 in [1] was 9.79 µM (inactive); in assay [2] it was 14.8 µM (inactive); in [3], 10.8 µM (inactive); in assay [4], 1.32 µM (inactive); in assay [5], 6.59 µM (inactive); in assay [6], 3.17 µM (inactive). Besides, the GI50 in assay [7] is 15.4 µM (inactive); in [8], 5.93 µM (inactive); in [9], 17.2 µM (inactive); in assay [10], 2.91 µM (inactive); in assay [11], 15.9 µM (inactive); in assay [12] it was 6.04 µM (inactive). In addition, the GI50 is 11.9 µM (inactive) in assay [13]; 13 µM (inactive) in [14]; 5.86 µM (inactive) in assay [15]; 10.1 µM (inactive) in assay [16]; 1.56 µM (inactive) in assay [17]; 15.8 µM (inactive) in assay [18]. Also, the GI50 in assay [19] is 3.29 µM (inactive); in assay [20] it was 5.07 µM (inactive).
Take `O=C1NC(=S)NC(=O)C1=Cc1cccc2cc3ccccc3cc12`: the GI50 in assay [1] is 1.86 µM (inactive); in assay [2], 2.28 µM (inactive); in assay [3], 1.69 µM (inactive); in [4] it was 1.61 µM (inactive); in assay [5], 1.95 µM (inactive); in [6], 1.71 µM (inactive). In addition, the GI50 was 2.91 µM (inactive) in assay [7]; 2.12 µM (inactive) in [8]; 3.08 µM (inactive) in assay [9]; 2.01 µM (inactive) in assay [10]; 2.04 µM (inactive) in [11]; 2.57 µM (inactive) in [12]. Further, the GI50 in assay [13] is 1.87 µM (inactive); in assay [14], 2.11 µM (inactive); in [15], 1.76 µM (inactive); in [16], 2.22 µM (inactive); in assay [17], 1.67 µM (inactive); in assay [18], 2.3 µM (inactive). Also, the values for the GI50 in assay [19] and in [20] were 1.92 µM (inactive) and 1.87 µM (inactive), respectively.
